We go through two molecules from patent US20260257992A1, “AGONISTS OF SMALL HETERODIMER PARTNER FOR CANCER THERAPY” (THE BOARD OF TRUSTEES OF THE UNIVERSITY OF ILLINOIS, priority 2023, published 2026).

One assay has as its system CD8+ T cell expansion. As to the kind of experiment: Suppressiveness of T cells expanded with treated BMDMs (secondary CD8+ expansion). Type of assay: cell-based, mouse. As to conditions: BMDMs pretreated with compound. From the text: FIG. 6A-6F. […] (A) DSHN-OMe has minimal effects on BMDM viability (N=4-6/group). (B) DSHN-OMe treated BMDMs reduce Treg expansion in a dose related manner, with an increased biological maximum compared to DSHN (data normalized to mean vehicle, which was set at 100%. Non-linear three parameter regression shown, N=4/point). […] Different letters denote P<0.05. […] The percentage of divided CD8+ T cells in the second round was quantified. (N=3-5/group, different letters indicating statistical significance, 1-way ANOVA followed by Tukey). […] Vehicle (DMSO) treated BMDMs are indicated on the right for comparison. (F) Cellular uptake of DSHN-OMe greatly exceeds that of DSHN though time. RAW264.7 cells were treated with 50 µM of vehicle (DMSO) or indicated compound for 4 h, 8 h or 24 h. Compound was washed off, cells were lysed and resulting DSHN and DSHN-OMe contents were assessed by LC-MS/MS. Note different scales on y-axes. For DSHN treated cells, no DSHN-OMe was detected (not shown). For DSHN-OMe treated cells, some DSHN was detected. ND signifies when compounds were not detected. (N=3/group. 4 h timepoint was run in an experiment independent of the 8 and 24 hr timepoints).
In order to better assess the potential cellular toxicity of DSHN-OMe, we treated BMDMs with increasing doses and measured their ability to reduce resazurin to resorufin (similar to the MTT viability assay).

Another assay has as its target T1, full length NR0B2 (Homo sapiens, UniProt Q15466).
T1 construct: A gene containing a hexa-His-TEV fusion with full length NR0B2 in pET21(a)+ was transformed in E. coli BL21(DE3); hexa-His with TEV site; made in house; host or cells: E. coli BL21(DE3)
T1 sequence (Q15466 1-257): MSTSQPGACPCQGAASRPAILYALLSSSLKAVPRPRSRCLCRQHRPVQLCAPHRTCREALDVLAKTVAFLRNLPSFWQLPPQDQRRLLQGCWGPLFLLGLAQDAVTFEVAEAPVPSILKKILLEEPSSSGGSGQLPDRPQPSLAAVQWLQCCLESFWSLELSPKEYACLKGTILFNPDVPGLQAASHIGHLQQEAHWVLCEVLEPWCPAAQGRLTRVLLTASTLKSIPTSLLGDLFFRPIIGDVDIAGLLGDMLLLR
As to the kind of experiment: Thermal shift assay with recombinant NR0B2. Type of assay: binding. The following applies: 1 mM ligand, 6 μM purified NR0B2; apo/unliganded 46.74±0.22. How it is done:
Protein expression, purification, and thermal shift assay. A gene containing a hexa-His-TEV fusion with full length NR0B2 in pET21(a)+ was transformed in E. coli BL21(DE3). A single colony was used to inoculate a 100 mL starter culture of LB broth containing 100 μg/mL ampicillin, which was allowed to grow overnight with shaking at 37° C. This starter culture was used to inoculate flasks containing autoinducing media, which were grown at 37° C. with shaking until they reached an OD^600 of 0.8. Subsequently, the temperature was reduced to 16° C. and cells were allowed to grow for another 24 hours. After harvesting by centrifugation, cells were resuspended at 15 mL/g cell paste in a buffer comprised of 25 mM HEPES pH 8.0, 250 mM NaCl, 20 mM imidazole pH 8.0, 5% glycerol, 0.5 mM TCEP, and Roche EDTA-free protease inhibitor cocktail. Cells were lysed by sonication then centrifuged at 18,000×g for 30 minutes to remove insoluble material. The lysate was loaded onto a gravity flow Ni-NTA column, washed with 5 column volumes (CVs) of resuspension buffer, and protein was eluted using the resuspension buffer supplemented with 500 mM imidazole. Collected protein was dialyzed overnight in the resuspension buffer without imidazole then concentrated and purified on a Superdex 200 HiLoad 200 16/600 size exclusion column. […]

The structures appear in SMILES notation.

With `CCN(CC)S(=O)(=O)c1cccc2cc(C(=O)O)c(O)cc12` [DSHN, reference compound], the “Suppressiveness of expanded T cells towards second set of naïve T cells (CD8+ expansion)” value in the assay with CD8+ T cell expansion is reported as “less suppressive”. For the same molecule, the “NR0B2 thermal melt temperature (TM)” value on full length NR0B2 is 46.34±0.51 °C.
For `CCN(CC)S(=O)(=O)c1cccc2cc(C(=O)OC)c(O)cc12` [DSHN-OMe, Methyl 5-(N,N-diethylsulfamoyl)-3-hydroxy-2-naphthoate], in that order: “less suppressive” and 46.92±0.17 °C.
